Results as given in patent US20100203634A1, “Inhibition of stem cell differentiation, enhancement of proliferation and selective induction of apoptosis by Wnt factors” (DeltaCell B.V., priority 2003, published 2010).
“Also recorded” adds a separate entry of the source.

Legend:
[1] = test system: mesenchyme and epithelium of fetal lung explants; assay: BrdU incorporation immunostaining on lung explants; assay type: cell-based, mouse; conditions: four days
Description: (§1) The primary antibodies used for the immunohistochemical detection was for beta-catenin; anti beta-catenin IgG, mAb, clone 14 from BD-Transduction Laboratories, for tubulin-beta mAb clone TBN05 (Tub2.1) from Neomarkers, for BrdU; anti-Bromodeoxyuridine (BrdU), mAb clone ZBU30 from Zymed Laboratories Inc.
To further analyze the effect of Wnt3a upon apoptosis and proliferation, lung explants were cultured for four days in the presence of 0, 4, 20, 100, 250, 500, 750 and 1000 ng/ml. In order to identify whether after Wnt3A treatment cells are viable and active, proliferating BrdU was added to the culture medium, which is incorporated in newly synthesized DNA of active proliferating cells, two hours before the fixation of the lung explants. […] To better investigate this effect, histological sections were analyzed with the TUNEL assay, which detects fragmented DNA present in apoptotic cells (material and methods).
In order to identify whether the epithelial cells were still actively proliferating after four days of Wnt3a treatment, the histological sections were immunostained for incorporated BrdU (FIG. 6).

[2] = test system: fetal lung explants (E12.5); assay: Eight-day fetal lung explant culture, histology and tubulin-IV immunostaining (final lung differentiation); assay type: cell-based, mouse
Description: FIG. 7: The effect of Wnt3A on the final lung differentiation. The lung explants were cultured for eight days in the presence of 0 ng/ml (Panels A and B), 10 ng/ml (Panel C), 50 ng/ml (Panel D), 250 ng/ml (Panel E) and 500 ng/ml Wnt3A (Panel F). After embedding, histological sections were stained with a tubulin-IV antibody to mark ciliated bronchial epithelium. In addition, the sections were counterstained with Haematoxylin and Alcian Blue, which stained the mucus secreted from the bronchial epithelium and the cartilage associated with the tracheal epithelium.
as §1
To further determine the effect of Wnt3A upon the development and differentiation of the lung over time, fetal lung explants of isolated E12.5 were cultured with 0, 10, 50, 250, and 500 ng/ml Wnt3A for eight days. Two hours before the fixation of the lung explants, BrdU was added to the culture medium, which is incorporated in newly synthesized DNA of active proliferating cells. After the different time points, the lung explants were processed for histological analysis and immuno staining of marker genes.

In the case of Wnt3a, the “BrdU-positive (active proliferating) cells” value (“BrdU-positive” for short) ([1]; 500 ng/ml and lower) is reported as “both the mesenchyme and epithelium contained many BrdU-positive”, the “BrdU-positive” value ([1]; 750 ng/ml) is reported as “intermediate effect” and the “BrdU-positive” value ([1]; 1000 ng/ml) is reported as “almost all BrdU-positive cells were present in the epithelium”. For the same substance, the “effect on lung development (morphology)” value ([2]; 10 ng/ml, up to eight days) was “profound effects on lung development”, the “flattening of the primordial epithelium to the type-I cell” value ([2]; 250 ng/ml, eight days) was “almost completely suppressed” and the branching ([2]; 500 ng/ml, after one day) was “inhibitory effect upon branching”. The branching ([2]; 500 ng/ml, eight days) was “still severely suppressed”, the “differentiation of distal epithelium (alveolar and bronchiolar compartments)” value ([2]; 500 ng/ml, eight days) was “completely inhibited” and the “proximal structures (tubulin-IV, Haematoxylin and Alcian Blue)” value ([2]; 500 ng/ml, eight days) was “consist completely of proximal structures; also recorded: abundance of bronchial epithelium, mucus and cartilage”. The “alveolarization of the distal epithelium / flattened epithelium (alveolar-type-I cells)” value ([2]; 10 to 250 ng/ml (to 500 ng/ml in FIG. 7), eight days) was “decreasing alveolarization of the distal epithelium; also recorded: loss of flattened epithelium (alveolar-type-I cells) with increasing dosage”.
